From patent publication US7648961B2, “Use of somatostatin or one of its analogues for preparing a medicament intended to regulate the ovarian follicular reserve in non-menopausal women” (Preglem S.A., priority 2003, dated 2010)
Where a SMILES comes first, the peptide text is derived from it. [ ]: non-standard residue; d: D form. Tic = O=C(O)[C@@H]1Cc2ccccc2CN1; Abu = CC[C@H](N)C(=O)O

Legend:
[1] = system: primordial follicles of ovarian cortex; assay: Culture of ewe ovarian cortex fragments for 10 days: start of growth of primordial follicles; type: cell-based; settings: for start of growth of the primordial follicles: ewe ovarian cortex, 10 days of culture, versus control fragments
Protocol: Ovaries of adult ewes are collected immediately after slaughter. The ovaries are placed in an organ transport medium without serum (X-vivo, Bio Whittaker, Walkersville, Md., USA) at 10° C. and transported to the laboratory. Approximately 1 h after removal, the cortex is isolated from the medulla then fractionated into slices of 2 mm thickness (1 cm^2, average weight of 212 mg) after rinsing in new X-vivo. The cortex fragments are cultured in an oven under 5% oxygen for 10 days in well plates in the presence of DMEM. The medium is changed every 2 days.
The procedure used is the same as for Example 1, except that the somatostatin is replaced with one of its agonist analogues, namely the synthetic peptide of formula c[Tic-Tyr-DTrp-Lys-Abu-Phe] (hereafter AG1 peptide).
The procedure used is the same as for Example 1, except that the somatostatin is replaced by one of its antagonist analogues, namely the synthetic peptide of formula Cpa-c(DCys-3-Pal-DTrp-NMeLys-Thr-Cys)-2-Nal-NH2 (hereafter ANT1 peptide).
FIG. 1 represents the proportions of dormant follicles during a period of 10 days of culture of an ovarian cortex of a ewe in the presence or absence (control) of somatostatin (SST14). These proportions are measured for each sample tested on the day of the start of the experiment (D0), on the 4th day (D4), on the 7th day (D7) and on the 10th day (D10).
FIG. 2 represents the proportions of primary follicles during a period of 10 days of culture of an ovarian cortex of a ewe in the presence or absence (control) of somatostatin (SST14). These proportions are measured for each sample tested on the day of the start of the experiment (D0), on the 4th day (D4), on the 7th day (D7) and on the 10th day (D10).
FIG. 3 represents the proportions of primordial, intermediate, primary and secondary follicles during a period of 10 days of culture of an ovarian cortex of a ewe in the absence of agonist or somatostatin antagonist analogue. These proportions are measured for each sample tested on the day of the start of the experiment (D0), on the 4th day (D4), on the 7th day (D7) and on the 10th day (D10).
FIG. 4 represents the proportions of primordial, intermediate, primary and secondary follicles during a period of 10 days of culture of an ovarian cortex of a ewe in the presence or absence of a somatostatin agonist analogue, the synthetic peptide of formula c[Tic-Tyr-DTrp-Lys-Abu-Phe] (AG1 peptide). These proportions are measured for each sample tested on the day of the start of the experiment (D0), on the 4th day (D4), on the 7th day (D7) and on the 10th day (D10).
FIG. 5 represents the proportions of primordial, intermediate, primary and secondary follicles during a period of 10 days of culture of an ovarian cortex of a ewe in the presence or absence of a somatostatin antagonist analogue, the synthetic peptide of formula Cpa-c(DCys-3-Pal-DTrp-NMeLys-Thr-Cys)-2-Nal-NH2 (ANT1 peptide). These proportions are measured for each sample tested on the day of the start of the experiment (D0), on the 4th day (D4), on the 7th day (D7) and on the 10th day (D10).

ovarian follicles = assay: Envisaged typical clinical situations of use in patients; type: in vivo, human; settings: patient with polycystic ovary syndrome, 120 mg/month, 4th month of treatment, envisaged situation
Source text: The following typical situations for a use according to the invention could however be envisaged: • A patient of approximately 20 to 25 years of age (for example) has a partial Turner syndrome through X chromosome microdeletion. Their ovarian function is apparently normal with regular ovulatory cycles. Their FSH serum level is slightly higher during the luteal-follicular transition period (for example FSH=approximately 9.2 IU/litre). […] Considering the high risk that they will have early menopause, the patient is treated with lanreotide acetate at a dose of 120 mg/months (Somatuline® Autogel® 120 mg, Beaufour Ipsen Pharma, France). The treatment is discontinued after several years when the patient wishes to conceive. • A patient of approximately 35 to 40 years of age has had primary sterility for several years. Assessment of the couple produced a diagnosis of sterility of tubal origin, very probably resulting from a history of peritonitis. The menstrual cycles are ovulatory and the FSH serum level is slightly higher during the luteal-follicular transition period (for example FSH=approximately 11.4 IU/L). […] A diagnosis of reduction of the ovarian reserve is made. […] During this treatment, the number of antral follicles present in each ovary is assessed by ultrasound at the start of each menstrual cycle. […]

[2] = AG1 peptide at 10^-9 M, D0-D10, FIG. 4

For CC[C@@H]1NC(=O)[C@H](CCCCN)NC(=O)[C@@H](Cc2c[nH]c3ccccc23)NC(=O)[C@H](Cc2ccc(O)cc2)NC(=O)[C@@H]2Cc3ccccc3CN2C(=O)[C@H](Cc2ccccc2)NC1=O [AG1 peptide, c[Tic-Tyr-DTrp-Lys-Abu-Phe]] (cyclo([Tic]Y[dW]K[Abu]F)), the “number of primary follicles” value [1, 2] was “absence of increase in the number of primary follicles”, the “number of primordial follicles over time” value [1, 2] was “maintenance over time of the number of primordial follicles” and the “start of growth of the primordial follicles” value ([1]; AG1 peptide at 10^-9 M) was “very significantly inhibits the start of growth of the primordial follicles”.

For C[C@H](N)C(=O)NCC(=O)N[C@H]1CSSC[C@@H](C(=O)O)NC(=O)[C@H](CO)NC(=O)[C@H]([C@@H](C)O)NC(=O)[C@H](Cc2ccccc2)NC(=O)[C@H]([C@@H](C)O)NC(=O)[C@H](CCCCN)NC(=O)[C@H](Cc2c[nH]c3ccccc23)NC(=O)[C@H](Cc2ccccc2)NC(=O)[C@H](Cc2ccccc2)NC(=O)[C@H](CC(N)=O)NC(=O)[C@H](CCCCN)NC1=O [SST14], the “number of primordial follicles over time” value ([1]; SST14 at 10^-9 M to 10^-6 M, D0-D10, FIG. 1) was “maintenance over time of the number of primordial follicles”, the “number of primary follicles” value ([1]; SST14 at 10^-9 M to 10^-6 M, D0-D10, FIG. 2) was “absence of increase in the number of primary follicles” and the “start of growth of the primordial follicles” value ([1]; SST14 at 10^-9 M to 10^-6 M) was “very significantly inhibits the start of growth of the primordial follicles”.

In the case of CC(C)[C@@H]1NC(=O)[C@H](CCCCN)NC(=O)[C@@H](Cc2c[nH]c3ccccc23)NC(=O)[C@H](Cc2ccc(O)cc2)NC(=O)[C@@H](NC(=O)[C@H](N)Cc2ccc3ccccc3c2)CSSC[C@@H](C(=O)N[C@H](C(N)=O)[C@@H](C)O)NC1=O [lanreotide acetate], the “ovarian volume and number of antral follicles (ultrasound)” value (ovarian follicles) was “reduction in ovarian volume and in the number of antral follicles”.
